Like-named read-outs stand apart in the source and are kept apart here.
Legend:
H1975-luc = assay: CellTiter-Glo anti-proliferation assay, H1975-luc; format: cell-based
Experimental: (§1) The anti-proliferation effect of 2 compounds (the compound of formula (I) and temozolomide) in 7 CNS metastasis cell lines (MOLT-4-luc, Nalm-6-luc, NCI-H460-luc, ACHN-luc2, PC-9-luc, H1975-luc, and KM12-luc) was evaluated.
(§2) The plating of cells and compound treatments are shown below in the plate map (Table 12). One plate was needed for the test of 2 compounds (the compound of formula (I) and temozolomide) in one cell line. The compound of formula (I) was tested from 10 μM, 3-fold serial dilution. Temozolomide was tested from 100 μM, 3-fold serial dilution.
(§3) All the cell lines were maintained in culture conditions at 37° C. in an atmosphere with 5% CO2 in air. The tumor cells were routinely subcultured. The cells growing in an exponential growth phase were harvested and counted for plating.
(§4) Cells were counted by haemocytometer with Trypan blue staining. Next, 135 μL of cell suspension were plated into the assay plates according to the plate map and 135 μL of assay medium into the blank wells. The plates were incubated at 37° C., 5% CO2, 95% air and 100% relative humidity overnight.
(§5) 4.4.4 Compound Plate (10×) Preparation and Compound Treatment • 10× concentrate compound plate preparation: Add 198 μL of assay medium into each well of the V-bottom plate; then transfer 2 μL of the stock compound solution of each concentration from the stock plate. Add 2 μL of DMSO into the Blank and Control wells. Pipette up and down to mix well. This V-plate is designated as the 10× concentrate compound plate. • For day 0 plate, add 15 μL of the DMSO-medium into the Control wells. The final DMSO concentration was 0.1%. Then directly proceed to cell viability assay. • For assay plate, add 15 μL of the compound-medium of each well from the 10× concentrate compound plate into the cells in 96-well assay plate according to the plate map. Add 15 μL of the DMSO-medium into the Blank and Control wells. The final DMSO concentration was 0.1%. • Return the assay plate into incubator and incubate for 6 days.
(§6) The procedures were performed according to the Promega CellTiter-Glo Luminescent Cell Viability Assay Kit manual (Promega-G7573). • The CellTiter-Glo buffer was thawed and equilibrated to room temperature prior to use. • CellTiter-Glo Substrate was equilibrated to room temperature prior to use. • The entire liquid volume of CellTiter-Glo Buffer was transferred into the amber bottle containing CellTiter-Glo Substrate to reconstitute the lyophilized enzyme/substrate mixture. This forms the CellTiter-Glo Reagent. • The contents were mixed by gently vortexing to obtain a homogeneous solution. • The plate was equilibrated and its contents to room temperature for approximately 30 minutes. 75 μL (equal to the half volume of culture medium present in each well) CellTiter-Glo • Reagent was added in each well. Plates were covered with aluminum foil to protect from light. • The contents were mixed for 2 minutes on an orbital shaker to induce cell lysis. • The plate was incubated at room temperature for 20 minutes to stabilize luminescent signal. • Record luminescence on the 2104 EnVision plate reader.
(§7) Inhibition rate (IR) of the tested compounds was determined by the following formula: IR (%)=(1−(RLU compound−RLU day0)/(RLU control−RLU day0))*100%. The inhibitions of different dose of compound were calculated in Excel file, and then were used to plot inhibition curves and evaluate related parameters, such as Min (%), Max (%) and GI50. The data were interpreted by GraphPad Prism.

MCF-7 tumors = format: in vivo; conditions: for T/C / TGI / Tumor Size: PG-D49
Experimental: The in vivo anti-tumor efficacy of the compound of formula (I) either alone or in combination with fulvestrant on MCF-7 breast tumor model on female Balb/c nude mice was evaluated. The protocol was he same as described in Example 1 with the exception that the dosing schedule of fulvestrant was modified.

MOLT-4-luc = assay: CellTiter-Glo anti-proliferation assay, MOLT-4-luc; format: cell-based
Experimental: as §1, §2, §3, §4, §5, §6, §7

SK-MEL-3 = assay: Cell viability assay, melanoma cell line SK-MEL-3; format: cell-based
Experimental: as §5
as §6, with “This forms the CellTiter-Glo Reagent. • The contents were mixed by gently vortexing to obtain a homogeneous solution. • The plate was equilibrated and its contents to room temperature for approximately 30 minutes. 75 μL (equal to the half volume of culture medium present in each well) CellTiter-Glo • Reagent was added in each well.” left out
as §7, with “The data were interpreted by GraphPad Prism.” left out

[1] = tested on: tumor fragments from a mCRPC patient; assay: Enzalutamide-resistant patient-derived xenograft prostate model (ST2347 PDX); format: in vivo, male Balb/c nude mice
[2] = tested on: U-87MG-luc orthotopic intracranial tumors; assay: U-87MG-luc glioblastoma orthotopic intracranial model, survival; format: in vivo, female BALB/c nude mice
Experimental: U-87MG-luc cells were derived from U-87MG parental cells acquired from ATCC by stably introducing the gene that encodes the luciferase (luc) protein. The U-87MG-luc cells were cultured at 37° C. in an atmosphere of 5% CO2 in air. The tumor cells were routinely subcultured twice weekly. The cells growing in an exponential growth phase were harvested and counted for tumor inoculation.
3×10^5 U-87MG-luc tumor cells were micro-injected into the right lobe (caudate nucleus) of the brain of each mouse. A total of 94 mice were inoculated. Ten days after cell inoculation, bioluminescence were measured by Xenogen IVIS Lumina II machine, 70 mice were selected and randomly assigned into 7 groups based on bioluminescence intensity and bodyweight. The mice were dosed according to Table 25.

KM12-luc = assay: CellTiter-Glo anti-proliferation assay, KM12-luc; format: cell-based
Experimental: as §1, §2, §3, §4, §5, §6, §7

[3] = 144 h, 6 days incubation, read-out: Absolute GI50
[4] = inhibition rate, 6 days, Compound (I) from 10 μM, temozolomide from 100 μM, 3-fold, 9 points

SMILES: CC(C)N1CCOc2c(F)cc(-c3nc(Nc4ccc(C5CCN(C)CC5)cn4)ncc3F)cc21 [Compound (I), 5-fluoro-4-(8-fluoro-4-isopropyl-3,4-dihydro-2H-benzo[b][1,4]oxazin-6-yl)-N-(5-(1-methylpiperidin-4-yl)pyridin-2-yl)pyrimidin-2-amine]
- GI50 (H1975-luc; [3]): 226 nM
- Max (%) (H1975-luc; [4]): 105.8%
- Min (%) (H1975-luc; [4]): −2.3%
- T/C (MCF-7 tumors; 10 mg/kg PO QD): 51.74%
- TGI (MCF-7 tumors; 10 mg/kg PO QD): 55.83%
- Tumor Size (MCF-7 tumors; 10 mg/kg PO QD): 611 mm^3
- T/C (MCF-7 tumors; 30 mg/kg PO QD): 14.39%
- TGI (MCF-7 tumors; 30 mg/kg PO QD): 99.02%
- Tumor Size (MCF-7 tumors; 30 mg/kg PO QD): 170 mm^3
- Toxicity (body weight changes) (MCF-7 tumors; MCF-7 tumor-bearing mice, 50 days): did not display toxicity
- GI50 (MOLT-4-luc; [3]): 200 nM
- Max (%) (MOLT-4-luc; [4]): 103.5%
- Min (%) (MOLT-4-luc; [4]): −18.4%
- GI50 (SK-MEL-3; Homo sapiens, SK-MEL3, read-out: Absolute GI50): 174 nM
- Max (%) (SK-MEL-3; inhibition rate): 111.93%
- Min (%) (SK-MEL-3; inhibition rate): −1.51%
- Antitumor activity over the course of the treatment ([1]; 30 mg/kg oral QD): statistically significant antitumor activity
- Tumor regression ([1]; 30 mg/kg oral QD): tumor regression in all cases
- Mice with 100% reduction in tumor volume ([1]; day 39 of treatment): one
- Mice with >50% reduction in tumor volume ([1]; day 39 of treatment): 3 of 10
- Median survival ([2]; 1 mg/kg PO*QD (vehicle 37 days)): 37 days
- Median survival ([2]; 3 mg/kg PO*QD (vehicle 37 days)): 40.5 days
- Median survival ([2]; 10 mg/kg PO*QD (vehicle 37 days)): 45 days
- Median survival ([2]; 30 mg/kg IV*QW (vehicle 37 days)): 39.5 days
- Median survival ([2]; 30 mg/kg PO*QD (vehicle 37 days)): 56 days
- Survival compared to vehicle treated group ([2]; PO at 10 mg/kg and 30 mg/kg): significantly prolonged survival
- GI50 (KM12-luc; KM12-Luc, 144 h, 6 days incubation, read-out: Absolute GI50): 654 nM
- Max (%) (KM12-luc; [4]): 111.2%
- Min (%) (KM12-luc; [4]): −15.2%

From patent publication US20230000876A1, “TREATING CANCERS WITH A CYCLIN-DEPENDENT KINASE INHIBITOR” (Nuvation Bio Inc., priority 2021, published 2023)
